Measurements reported in PMC4504433 (ACS Chemical Biology, 2014).

Tested on: H3K79me2 in A431 cells
Assay: High content imaging assay of H3K79me2
Conditions: 4 days

Nc1ncnc2c1ncn2[C@@H]1O[C@H](CSCC[C@H](N)C(=O)O)[C@@H](O)[C@H]1O [SAH]
reduction of H3K79 methylation, result in words: ineffective
